Measurements as given in patent publication USRE37781E1, “Substituted cyclic carbonyls and derivatives thereof useful as retroviral protease inhibitors” (DuPont Pharmaceuticals Company, priority 1991, dated 2002).
Like-named read-outs stand apart in the source and are kept apart here.

Key:
HIV-1 (RF) in MT-2 cells = assay: microbe, parasite or virus in culture; assay type: cell-based
In short: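 HIV-1 laboratory strains (RF, MN, IIIB) grown in H9 cells in RPMI 1640 with 5% FCS; infections in MT-2 cells. Viral RNA quantified by hybridization with biotinylated gag/pol capture probes on streptavidin plates and alkaline phosphatase-conjugated reporter probes; BH10 gag-pol in vitro transcripts serve as RNA standards.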

[1] = molecular target: single-chain tethered dimer of HIV protease (Human immunodeficiency virus 1, UniProt P04585); assay: biochemical; assay type: biochemical; set-up: fused on or other part: A second copy of the same protease unit is joined to the first by a short peptide tether, giving one polypeptide
[2] = Human immunodeficiency virus 1, MT2, 48 h, Table 2d, class symbols, read-out: IC90
[3] = read-out: HPLC K1, Table 2d, class symbols
[4] = Table 2d, HIV protease inhibition, HPLC method, read-out: HPLC K1
[5] = Human immunodeficiency virus 1, MT2, 48 h, Table 2d, HIV RNA assay, read-out: IC90
[6] = read-out: HPLC K1, Table 2d, HIV protease inhibition, HPLC method
[7] = HIV RNA assay, HIV-1 infected MT-2 cells, Table 2d
[8] = HIV protease inhibition, HPLC method, Table 2d, read-out: HPLC K1

How did the IC90 (HIV-1 (RF) in MT-2 cells; Table 2i) turn out when `CC(=O)c1cccc(CN2C(=O)N(Cc3cccc(C(C)=O)c3)C(Cc3ccc(F)cc3)C(O)C(O)C2Cc2ccc(F)cc2)c1` (stereo not drawn) [20N] was run?
Its IC90 is “+++ (+++=<10 μg/mL)”.

And the Ki ([1]; Table 2i, read-out: HPLC Ki)?
Its Ki is < 10 nM.

What does the source list for `Nc1cccc(CN2C(=O)N(CC3CC3)C(Cc3ccccc3)C(O)C(O)C2Cc2ccccc2)c1` (stereo not drawn) [15G]?
IC90 (HIV-1 (RF) in MT-2 cells; [2]): < 10 µg/mL; Ki [1, 3]: < 10 nM

How did the IC90 (HIV-1 (RF) in MT-2 cells; Table 2i) turn out when `O=C1N(Cc2cccc(CO)c2)C(Cc2ccc(F)c(F)c2)C(O)C(O)C(Cc2ccc(F)c(F)c2)N1Cc1cccc(CO)c1` (stereo not drawn) [20AA] was run?
The IC90 was “+++ (+++=<10 μg/mL)”.

What about the Ki ([1]; Table 2i, read-out: HPLC Ki) of the same molecule?
Its Ki is < 10 nM.

What does the source list for `NCCCCCCN1C(=O)N(Cc2ccc(CO)cc2)C(Cc2ccccc2)C(O)C(O)C1Cc1ccccc1` (stereo not drawn) [Example 15WD]?
IC90 (HIV-1 (RF) in MT-2 cells; [2]): < 10 µg/mL; Ki [1, 3]: 10 to 1000 nM

With `O=P1(Oc2ccccc2)N(CC2CC2)[C@H](Cc2ccccc2)[C@H](O)[C@@H](O)[C@@H](Cc2ccccc2)N1CC1CC1` (stereo partly drawn) [28C] as the molecule, how does the IC90 (HIV-1 (RF) in MT-2 cells; Table 2r) read?
The IC90 was “+++ (+++=<10 μg/mL)”.

And the Ki ([1]; Table 2r, read-out: Ki HPLC)?
Its Ki is 10 to 1000 nM.

`O=C1Cc2cc(CN3C(=O)N(Cc4ccc5c(c4)CC(=O)N5)C(Cc4ccccc4)C(O)C(O)C3Cc3ccccc3)ccc2N1` (stereo not drawn) [15DD] was tested. Which IC90 (HIV-1 (RF) in MT-2 cells; Table 2d, HIV RNA assay) did it give?
The IC90 was “+++ (+++=<10 μg/mL)”.

What about the Ki [1, 4] of the same molecule?
The Ki was < 10 nM.

Which results are given for `O=C1N(Cc2cccc(CO)c2)C(Cc2ccccc2)C(O)C(O)C(Cc2ccccc2)N1Cc1cccc(-c2cc[nH]n2)c1` (stereo not drawn) [Example 15BQ]?
IC90 (HIV-1 (RF) in MT-2 cells; [5]): < 10 µg/mL; Ki [1, 6]: < 10 nM

What does the source list for `CC(=O)Oc1ccc(CN2C(=O)N(Cc3ccc(OC(C)=O)cc3)C(Cc3ccccc3)C(O)C(O)C2Cc2ccccc2)cc1` (stereo not drawn) [10L]?
IC90 (HIV-1 (RF) in MT-2 cells; [2]): < 10 µg/mL; Ki [1, 3]: 10 to 1000 nM

For `N#Cc1cccc(CN2C(=S)N(Cc3ccc(CO)cc3)C(Cc3ccccc3)C(O)C(O)C2Cc2ccccc2)c1` (stereo not drawn) [Example 27H], which IC90 (HIV-1 (RF) in MT-2 cells; Table 2q) is on record?
The IC90 was “+++ (+++=<10 μg/mL)”.

And the Ki ([1]; Table 2q, read-out: HPLC Ki)?
The Ki was < 10 nM.

`O=C(NCc1ccccn1)c1cccc(CN2C(=O)N(Cc3cccc(-c4cc[nH]n4)c3)C(Cc3ccccc3)C(O)C(O)C2Cc2ccccc2)c1` (stereo not drawn) [15CB] was tested. Which IC90 (HIV-1 (RF) in MT-2 cells; Table 2d, HIV RNA assay) did it give?
Its IC90 is “+++ (+++=<10 μg/mL)”.

What about the Ki [1, 4] of the same molecule?
Its Ki is < 10 nM.

How did the IC90 (HIV-1 (RF) in MT-2 cells; Table 2i) turn out when `O=C1N(Cc2cccc(CO)c2)C(Cc2ccc(F)cc2)C(O)C(O)C(Cc2ccc(F)cc2)N1Cc1cccc(CO)c1` (stereo not drawn) [20T] was run?
The IC90 was “+++ (+++=<10 μg/mL)”.

And the Ki ([1]; Table 2i, read-out: HPLC Ki)?
Its Ki is < 10 nM.

`N#CCc1cccc(CN2C(=O)N(Cc3cccc(CC#N)c3)C(Cc3ccccc3)C(O)C(O)C2Cc2ccccc2)c1` (stereo not drawn) [15DU] was tested. Which IC90 (HIV-1 (RF) in MT-2 cells; [5]) did it give?
Its IC90 is < 10 µg/mL.

And the Ki [1, 6]?
The Ki was 10 to 1000 nM.

For `COc1cccc(CC2NC(=O)NC(Cc3cccc(OC)c3)C(O)C2O)c1` (stereo not drawn) [20AO], which IC90 (HIV-1 (RF) in MT-2 cells; Table 2i) is on record?
Its IC90 is “++ (++=10 to 100 μg/mL)”.

What about the Ki ([1]; Table 2i, read-out: HPLC Ki) of the same molecule?
The Ki was 10 to 1000 nM.

`CN(C)CCCCN1C(=O)N(CCCCN(C)C)C(Cc2ccccc2)C(O)C(O)C1Cc1ccccc1.Cl.Cl` (stereo not drawn) [15FH] was tested. Which IC90 (HIV-1 (RF) in MT-2 cells; [7]) did it give?
The IC90 was “++/+ (The ++/+ is used in the cases where an IC90 was determined to be >50 μg/mL)”.

And the Ki [1, 8]?
Its Ki is 10 to 1000 nM.

How did the IC90 (HIV-1 (RF) in MT-2 cells; [7]) turn out when `O=C(NCCCCCN1C(=O)N(CCCCCNC(=O)c2cnccn2)C(Cc2ccccc2)C(O)C(O)C1Cc1ccccc1)c1cnccn1` (stereo not drawn) [15FF] was run?
The IC90 was “++/+ (The ++/+ is used in the cases where an IC90 was determined to be >50 μg/mL)”.

What about the Ki [1, 8] of the same molecule?
The Ki was > 1000 nM.

How did the IC90 (HIV-1 (RF) in MT-2 cells; [2]) turn out when `O=C1N(CCCCCO)C(Cc2ccccc2)C(O)C(O)C(Cc2ccccc2)N1Cc1ccccc1` (stereo not drawn) [Example 15VI] was run?
The IC90 was < 10 µg/mL.

What about the Ki [1, 3] of the same molecule?
The Ki was < 10 nM.

What does the source list for `Oc1cccc(CN2C(=S)N(Cc3cccc(O)c3)C(Cc3ccccc3)C(O)C(O)C2Cc2ccccc2)c1` (stereo not drawn) [Example 27J]?
IC90 (HIV-1 (RF) in MT-2 cells; Table 2q): +++ (+++=<10 μg/mL); Ki ([1]; Table 2q, read-out: HPLC Ki): < 10 nM

For `NC(=NO)c1cccc(CN2C(=O)N(Cc3cccc(C(N)=NO)c3)C(Cc3ccc(F)c(F)c3)C(O)C(O)C2Cc2ccc(F)c(F)c2)c1` (stereo not drawn) [20AD], which IC90 (HIV-1 (RF) in MT-2 cells; Table 2i) is on record?
Its IC90 is “+++ (+++=<10 μg/mL)”.

What about the Ki ([1]; Table 2i, read-out: HPLC Ki) of the same molecule?
The Ki was < 10 nM.

Which IC90 (HIV-1 (RF) in MT-2 cells; [2]) does the source give for `O=C1N(CCCCCCO)C(Cc2ccccc2)C(O)C(O)C(Cc2ccccc2)N1CCCCCCO` (stereo not drawn) [Example 12D] here?
Its IC90 is < 10 µg/mL.

What about the Ki [1, 3] of the same molecule?
The Ki was < 10 nM.

What does the source list for `N#Cc1cccc(CN2C(=S)N(Cc3ccccc3)C(Cc3ccccc3)C(O)C(O)C2Cc2ccccc2)c1` (stereo not drawn) [Example 27E]?
IC90 (HIV-1 (RF) in MT-2 cells; Table 2q): +++ (+++=<10 μg/mL); Ki ([1]; Table 2q, read-out: HPLC Ki): < 10 nM

With `O=C1N(Cc2ccc3[nH]nc(Cl)c3c2)C(Cc2ccccc2)C(O)C(O)C(Cc2ccccc2)N1Cc1ccc2[nH]nc(Cl)c2c1` (stereo not drawn) [15DI] as the molecule, how does the IC90 (HIV-1 (RF) in MT-2 cells; Table 2d, HIV RNA assay) read?
The IC90 was “+++ (+++=<10 μg/mL)”.

And the Ki [1, 4]?
The Ki was < 10 nM.

For `CCC(=O)c1cccc(CN2C(=O)N(Cc3cccc(C(=O)CC)c3)C(Cc3ccccc3)C(O)C(O)C2Cc2ccccc2)c1` (stereo not drawn) [Example 15XN], which IC90 (HIV-1 (RF) in MT-2 cells; [5]) is on record?
Its IC90 is < 10 µg/mL.

And the Ki [1, 6]?
The Ki was < 10 nM.

`O=C1N(Cc2cccc(OCC(O)CO)c2)C(Cc2ccccc2)C(O)C(O)C(Cc2ccccc2)N1Cc1cccc(OCC(O)CO)c1` (stereo not drawn) [10T] was tested. Which IC90 (HIV-1 (RF) in MT-2 cells; Table 2d, class symbols) did it give?
Its IC90 is “+++ (+++=<10 μg/mL)”.

And the Ki ([1]; Table 2d, class symbols, read-out: HPLC K1)?
The Ki was < 10 nM.

For `O=S1(=O)N(Cc2ccc(OCc3ccccc3)cc2)C(Cc2ccccc2)C(O)C(O)C(Cc2ccccc2)N1Cc1ccc(OCc2ccccc2)cc1` (stereo not drawn) [23J], which IC90 (HIV-1 (RF) in MT-2 cells; Table 2m) is on record?
Its IC90 is “++ (++=10 to 100 μg/mL)”.

What about the Ki ([1]; Table 2m, read-out: HPLC Ki) of the same molecule?
The Ki was > 1000 nM.
